Assay: HILIC, Waters ACQUITY UPLC BEH Amide, 100 × 2.1 mm, 1.7 µm; A: water + 0.125% formic acid + 10 mM ammonium formate; B: 5% water + 95% acetonitrile + 0.125% formic acid + 10 mM ammonium formate; gradient (min/%B) 0/100 2/100 7.7/70 9.5/40 10.25/30 12.75/100 17/100
Conditions: stereoisomer not certain

LC retention time | SMILES
9.97 min | NC(CSSCC(N)C(=O)O)C(=O)O (stereo not drawn) [Cystine]
1.58 min | CC(=O)Nc1ccc(CC(=O)O)cc1 [Actrarit]
1.11 min | CC(C)C1=CC2=CCC3C(C)(C(=O)O)CCCC3(C)C2CC1 (stereo not drawn) [Abietic acid]
2.88 min | O=C(O)CNC(=O)Cc1ccccc1 [Phenylacetylglycine]
6.41 min | Nc1nc2[nH]c(=O)cnc2c(=O)[nH]1 [Isoxanthopterin]
1.19 min | CN1CC(=O)N2C(Cc3c([nH]c4ccccc34)C2c2ccc3c(c2)OCO3)C1=O (stereo not drawn) [Taldalafil]
7.42 min | NC(CC(=O)O)c1ccc(O)cc1 (stereo not drawn) [3-Amino-3-(4-hydroxyphenyl)propionic acid]
2.94 min | CCN(CC)CC1CCCCN1CC(=O)N1c2ccccc2C(=O)Nc2cccnc21 (stereo not drawn) [Otenzepad]
9.6 min | NCCCC(N)C(=O)O (stereo not drawn) [Ornithine]
9.58 min | NC(CCS)C(=O)O (stereo not drawn) [Homocysteine]
1.34 min | Nc1ccc(O)cc1 [4-Aminophenol]
2.95 min | O=C(O)CNC(=O)C=Cc1ccccc1 [N-Cinnamoylglycine]
8.31 min | NC(Cc1ccc(O)c(O)c1)C(=O)O (stereo not drawn) [3,4-Dihydroxyphenylalanine]
8.63 min | Nc1ncnc2c1ncn2C1CC(O)C(COP(=O)(O)O)O1 (stereo not drawn) [2'-Deoxyadenosine-5'-monophosphate]
2.01 min | CC[N+](C)(CC)CCOC(=O)C(O)(c1ccccc1)C1CCCCC1 (stereo not drawn) [Oxyphenonium]
7.29 min | Nc1ncnc2c1ncn2C1CC2OP(=O)(O)OCC2O1 (stereo not drawn) [3',5'-Cyclic dAMP]
3.47 min | CC(C)NCC(O)COc1ccc(COCCOC(C)C)cc1 (stereo not drawn) [Bisoprolol]
6.45 min | CNC(CC(C)C)C(=O)O (stereo not drawn) [N-Methylleucine]
1.19 min | c1ccc(-c2ccc(C(c3ccccc3)n3ccnc3)cc2)cc1 (stereo not drawn) [Bifonazole]
5.8 min | COC1C(CO)OC(n2cnc3c(=O)[nH]c(N)nc32)C1O (stereo not drawn) [3'-O-Methylguanosine]
5.9 min | Nc1ccnc(=O)[nH]1 [Cytosine]

LC retention time | SMILES
8.15 min | NC(N)=NCCC(=O)O [3-Guanidinopropionic acid]
10.2 min | CCCC(=O)O [Butanoic acid]
1.26 min | O=c1cc(-c2ccccc2)oc2ccc(O)cc12 [6-Hydroxyflavone]
9.77 min | NCC(O)CCC(N)C(=O)O (stereo not drawn) [delta-Hydroxylysine]
5.84 min | Cn1c(N)nc2c(ncn2C2OC(CO)C(O)C2O)c1=O (stereo not drawn) [1-Methylguanosine]
4.47 min | COc1cc(-c2[o+]c3cc(O)cc(O)c3cc2OC2OC(CO)C(O)C(O)C2O)cc(O)c1O (stereo not drawn) [Petunidin-3-glucoside]
2.26 min | CN(C)CCC=C1c2ccccc2COc2ccccc21 [Doxepin]
1.82 min | Cc1cc2nc[nH]c2cc1C [5,6-Dimethylbenzimidazole]
1.36 min | COc1cc(/C=C/C(=O)O)ccc1O [Ferulic acid]
1.16 min | CC(CCC(=O)O)C1CCC2C3C(=O)CC4CC(=O)CCC4(C)C3CC(=O)C12C (stereo not drawn) [Dehydrocholic acid]
7.24 min | NCCCCC(=O)O [5-Aminovaleric acid]
9.66 min | CC(NC(=O)C(N)CCCN=C(N)N)C(=O)O (stereo not drawn) [Arg-Ala]
1.2 min | NC(=O)OCC(COC(N)=O)c1ccccc1 [Felbamate]
6.88 min | NC(Cc1ccc(O)c([N+](=O)[O-])c1)C(=O)O (stereo not drawn) [3-Nitrotyrosine]
5.74 min | CC=C1C2C=C(C)CC1(N)c1ccc(=O)[nH]c1C2 (stereo not drawn) [Huperzine]
8.18 min | CC(=O)N[C@@H](CCC(N)=O)C(=O)O [N-Acetyl-L-glutamine]
1.33 min | O=C(O)Cc1c[nH]c2ccccc12 [3-Indoleacetic acid]
7.66 min | CC(N)C(=O)NC(C(=O)O)C(C)C (stereo not drawn) [Ala-Val]
8.06 min | Nc1cc(CC(N)C(=O)O)ccc1O (stereo not drawn) [3-Aminotyrosine]
7.7 min | Cc1ncc(COP(=O)(O)O)c(C=O)c1O [Pyridoxal-5-phosphate]

SMILES | LC retention time
COc1ccc(C=O)cc1OC [3,4-Dimethoxybenzaldehyde] | 1.08 min
CC12CCC3C4CCC(=O)C=C4CCC3C1CCC2O (stereo not drawn) [Nandrolone] | 1.06 min
O=C(O)CCP(=O)(O)O [3-Phosphonopropionic acid] | 8.59 min
CN1C(=O)CN=C(c2ccccc2)c2cc([N+](=O)[O-])ccc21 [Nimetazepam] | 0.98 min
CNC(C)Cc1ccccc1 (stereo not drawn) [Methamphetamine] | 3.33 min
CCC(COC(=O)c1cc(OC)c(OC)c(OC)c1)(c1ccccc1)N(C)C (stereo not drawn) [Trimebutine] | 1.47 min
Br.CN1CCC2(c3cccc(O)c3)Cc3nc4ccccc4cc3CC2C1.O (stereo not drawn) | 5.11 min

Source: the RepoRT retention time repository
